Patent publication US8735436B2, “Polyunsaturated fatty acids for the treatment of diseases related to cardiovascular, metabolic and inflammatory disease areas” (Pronova Biopharma Norge AS, priority 2009, dated 2014)

Columns and labels:
Assay in all cases: PPAR activation in vitro, mammalian-one-hybrid (M1H) GAL4-PPAR-LBD luciferase reporter assay
Assay type in all cases: cell-based
[1] = target: T1, PPARγ (Homo sapiens, UniProt P37231); settings: for PPARγ Efficacy: HEK293 cells, efficacy of positive control (rosiglitazone) set to 100%; for EC50: transiently transfected HEK293 cells, compound incubation 16-20 h, six concentrations in duplicate
T1 construct: expressed in transfected cells; host or cells: HEK293
T1 sequence (P37231 238-503 limits assumed): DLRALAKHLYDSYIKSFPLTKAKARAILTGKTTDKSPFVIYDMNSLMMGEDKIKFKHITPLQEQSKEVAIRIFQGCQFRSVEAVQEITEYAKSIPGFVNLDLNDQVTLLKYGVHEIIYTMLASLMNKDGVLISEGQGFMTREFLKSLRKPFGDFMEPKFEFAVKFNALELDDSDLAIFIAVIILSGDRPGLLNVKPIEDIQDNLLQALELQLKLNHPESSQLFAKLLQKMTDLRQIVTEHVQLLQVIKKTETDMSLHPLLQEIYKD
Method: (§1) The assays were carried out in vitro using mammalian-one-hybrid assays (M1H) comprising GAL4-DNA binding domain-PPAR-LBD fusion constructs in conjunction with 5×GAL4-sites driven Photinus pyralis luciferase reporter constructs in transiently transfected HEK293 cells.
(§2) The cells were transfected 4-6 h and grown overnight before compounds were added. Compound incubation was 16-20 h.
(§3) Renilla reniformis luciferase, driven by a constitutive promoter, was included as internal control to improve experimental accuracy.
(§4) The compounds (A-C) and a positive control were tested at six different concentrations in duplicate. The positive controls were GW7647 (PPARα), GW501516 (PPARδ) and rosiglitazone (PPARγ). The efficacy of the controls were set to 100%.

[2] = target: T2, PPARα (Homo sapiens, UniProt Q07869); settings: for PPARα Efficacy: HEK293 cells, efficacy of positive control (GW7647) set to 100%; for EC50: transiently transfected HEK293 cells, compound incubation 16-20 h, six concentrations in duplicate
T2 construct: expressed in transfected cells; host or cells: HEK293
T2 sequence (Q07869 239-466 limits assumed): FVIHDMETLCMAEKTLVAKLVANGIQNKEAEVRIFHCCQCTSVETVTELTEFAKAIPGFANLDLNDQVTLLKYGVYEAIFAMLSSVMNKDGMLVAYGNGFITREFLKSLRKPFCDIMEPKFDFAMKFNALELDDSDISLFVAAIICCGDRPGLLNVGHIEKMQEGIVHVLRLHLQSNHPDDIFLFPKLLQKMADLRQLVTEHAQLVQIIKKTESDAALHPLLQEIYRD
Method: as §1, §2, §3, §4

[3] = target: T3, PPARδ (Homo sapiens, UniProt Q03181); settings: for PPARδ Efficacy: HEK293 cells, efficacy of positive control (GW501516) set to 100%; for PPARδ EC50: transiently transfected HEK293 cells, compound incubation 16-20 h, six concentrations in duplicate
T3 construct: expressed in transfected cells; host or cells: HEK293
T3 sequence (Q03181 211-439 limits assumed): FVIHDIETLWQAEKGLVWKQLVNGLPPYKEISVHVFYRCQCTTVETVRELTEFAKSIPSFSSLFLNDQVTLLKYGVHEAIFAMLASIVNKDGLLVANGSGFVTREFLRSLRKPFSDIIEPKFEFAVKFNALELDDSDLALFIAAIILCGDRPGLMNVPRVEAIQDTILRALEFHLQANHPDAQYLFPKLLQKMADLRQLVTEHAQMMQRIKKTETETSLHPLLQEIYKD
Method: as §1, §2, §3, §4

Compound | PPARγ Efficacy [1] | EC50 [1] | PPARα Efficacy [2] | EC50 [2] | PPARδ Efficacy [3] | PPARδ EC50 [3]
CC/C=C\C/C=C\C/C=C\C/C=C\C/C=C\CCCCOC(CC)C(=O)O (stereo not drawn) [A] | 22% | 0.806 µM | 82% | 0.307 µM | inactive | inactive
CC/C=C\C/C=C\C/C=C\C/C=C\C/C=C\CCCCO[C@@H](CC)C(=O)O [B] | 27% | 0.644 µM | 86% | 0.405 µM | inactive | inactive
CC/C=C\C/C=C\C/C=C\C/C=C\C/C=C\CCCCO[C@H](CC)C(=O)O [C] | 25% | 0.515 µM | 54% | 0.167 µM | inactive | inactive
